Results from patent publication US12528783B2, “PqsR inverse agonists” (priority 2020, dated 2026).

Columns and labels:
[1] = biological target: T1, PqsR (Pseudomonas aeruginosa, UniProt Q9I4X0); test: PqsR inverse agonistic activity, reporter gene assay in E. coli; assay type: cell-based
T1 construct: expressed in transfected cells; host or cells: Escherichia coli DH5a carrying pEAL08-2
Method: Inhibition of pqsR-dependent gene expression of test compounds was determined in an E. coli based-galactosidase reporter gene assay. Escherichia coli DH5a was transfected with pEAL08-2 plasmid encoding pqsR under control of promoter tac and β-galactosidase reporter gene lacZ under control of promoter pqsA. Antagonistic effects of compounds were evaluated in the presence of/in competition to 50 nM PQS. A positive control was used to ensure the reliability of individual assays. First, PQS was diluted in methanol and added to the wells of a glass coated 96-deep-well plate, and the solvent was evaporated. Then, compounds were added in 5 μL DMSO to final concentrations of 0.001-10 μM. Overnight cultures of E. coli DH5a×pEAL08-2 were diluted 1:100 in LB medium with ampicillin (50 μg/ml) and incubated at 37° C. with shaking until it reached an OD600 of 0.2. Finally, 995 μL of culture was added to each well and the β-galactosidase activity was determined by ortho-nitrophenyl-β-galactoside conversion in permeabilized cells after a 2.5 h incubation period (37° C., 180 rpm). OD600, OD420, and OD550 were measured using POLARstar Omega (BMG Labtech, Ortenberg, Germany), and the activity was expressed as ratio of the slope of B-galactosidase activity between basal control (no PQS) and solvent control. IC50 values of antagonists were determined by variation of the concentration of the test compounds.

[2] = tested on: P. aeruginosa pyocyanin production; test: Pyocyanin assay; assay type: cell-based; conditions: Pseudomonas aeruginosa, PA14, 16 h, read-out: IC50-value towards pyocyanin production, PA14 in PPGAS medium, 16 h
Method: Inhibition of P. aeruginosa pyocyanin production by compounds was determined photometrically as described before. In short, an overnight culture of PA14 in PPGAS medium was washed, diluted in medium to a start OD600 of 0.02, and incubated for 16 h (37° C., 200 rpm, relative humidity 75%) in the presence of test compounds. Then, cultures were extracted with chloroform and re-extracted with 0.2 M HCl. Protonated red colored pyocyanin was determined by measuring OD520 and normalizing to OD600.

[3] = Kinetic Turbidimetric Aqueous Solubility; assay type: physicochemical; conditions: aqueous buffer, kinetic from dmso stock, PBS buffer, room temperature
Method: Kinetic Turbidimetric Aqueous Solubility at room temperature for 5 min. Test compound was diluted in PBS buffer to give a range of concentrations (typically 0.4, 2, 4, 20, 40, 100, and 200 μM, final DMSO concentration 2%) and incubated at room temperature for 5 min. Absorbance was measured at a wavelength of 620 nm and the solubility was estimated from the concentration of test compound that produces an increase in absorbance above the vehicle control (i.e., […]). Data was analyzed by fitting a four parameter sigmoidal function to the measured and normalized absorbances and AUC calculation providing access to Log S (decadic logarithm of the solubility).

T1 sequence (Q9I4X0 whole entry): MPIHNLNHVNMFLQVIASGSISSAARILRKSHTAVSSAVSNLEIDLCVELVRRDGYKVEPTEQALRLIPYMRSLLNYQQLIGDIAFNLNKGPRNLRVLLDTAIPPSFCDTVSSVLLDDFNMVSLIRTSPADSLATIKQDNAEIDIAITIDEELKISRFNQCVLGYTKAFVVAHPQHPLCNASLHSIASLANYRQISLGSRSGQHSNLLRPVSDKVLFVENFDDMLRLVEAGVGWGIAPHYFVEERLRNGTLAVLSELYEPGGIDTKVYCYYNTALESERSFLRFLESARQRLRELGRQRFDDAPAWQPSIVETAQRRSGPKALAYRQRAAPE

With `Fc1cccc(Nc2ccc3[nH]c(CSc4ccnc(C(F)(F)F)c4)nc3c2)c1F` [Compound 46] the IC50 [1] was 51 to 250 nM, the IC50 [2] was 201 to 500 nM and the solubility at 5 min [3] was > 10 µM.
For `Nc1cc(SCc2nc3cc(Nc4cccnc4)ccc3[nH]2)cc(C(F)(F)F)n1` [Compound 20], the IC50 [2] was 201 to 500 nM and the solubility at 5 min [3] was > 25 µM.
In the case of `FC(F)(F)c1cc(NCc2cn(-c3cccc(Nc4ccccc4)c3)nn2)ccn1` [Compound 02], the IC50 [1] is reported as ≤ 50 nM, the IC50 [2] is reported as ≤ 100 nM and the solubility at 5 min [3] is reported as > 10 µM.
With `Nc1cc(SCc2nc3cc(Nc4ccccc4)ccc3[nH]2)cc(C(F)(F)F)n1` [Compound 13] the IC50 [2] was 101 to 200 nM and the solubility at 5 min [3] was > 10 µM.
In the case of `Fc1ccc(F)c(Nc2ccc3[nH]c(CSc4ccnc(C(F)(F)F)c4)nc3c2)c1` [Compound 44], the solubility at 5 min [3] is reported as > 25 µM.
Work on `Fc1ccc(C(F)(F)F)cc1Nc1ccc2[nH]c(CSc3ccnc(C(F)(F)F)c3)nc2c1` [Compound 50] yielded an IC50 [2] of 201 to 500 nM.
Molecule `FC(F)(F)c1cc(SCc2nc3cc(NC4CCCCC4)ccc3[nH]2)ccn1` [Compound 17] has an IC50 [1] of 51 to 250 nM and an IC50 [2] of 501 to 1000 nM.
In the case of `NC(=O)c1ccccc1Nc1ccc2[nH]c(CSc3ccnc(C(F)(F)F)c3)nc2c1` [Compound 35], the IC50 [2] is reported as 101 to 200 nM and the solubility at 5 min [3] is reported as > 50 µM.
For `Fc1cccc(Nc2cccc(-n3cc(CNc4ccnc(C(F)(F)F)c4)nn3)c2)c1` [Compound 03], the IC50 [2] was 101 to 200 nM and the solubility at 5 min [3] was > 10 µM.
For `Fc1ccc(F)c(Nc2cccc(-n3cc(CNc4ccnc(C(F)(F)F)c4)nn3)c2)c1` [Compound 06], the IC50 [2] was 101 to 200 nM and the solubility at 5 min [3] was > 10 µM.
`FC(F)(F)c1cc(OCc2nc3cc(Nc4ccccc4Cl)ccc3[nH]2)ccn1` [Compound 65] showed an IC50 [2] of 201 to 500 nM.
In the case of `Fc1ccccc1Nc1ccc2[nH]c(COc3ccnc(C(F)(F)F)c3)nc2c1` [Compound 63], the solubility at 5 min [3] is reported as > 10 µM.
In the case of `Fc1cc(C(F)(F)F)ccc1Nc1ccc2[nH]c(CSc3ccnc(C(F)(F)F)c3)nc2c1` [Compound 49], the IC50 [2] is reported as 101 to 200 nM and the solubility at 5 min [3] is reported as > 25 µM.
For `Fc1cccc(Nc2ccc3[nH]c(CNc4ccnc(C(F)(F)F)c4)nc3c2)c1` [Compound 61], the IC50 [1] was ≤ 50 nM, the IC50 [2] was ≤ 100 nM and the solubility at 5 min [3] was ≥ 100 µM.
With `COc1ccc(Nc2ccc3[nH]c(CSc4ccnc(C(F)(F)F)c4)nc3c2)cc1F` [Compound 53] the solubility at 5 min [3] was > 25 µM.
For `Fc1cc(F)cc(Nc2ccc3[nH]c(CSc4ccnc(C(F)(F)F)c4)nc3c2)c1` [Compound 43], the solubility at 5 min [3] was > 25 µM.
Molecule `Cc1ccccc1Nc1ccc2[nH]c(CSc3ccnc(C(F)(F)F)c3)nc2c1` [Compound 29] has an IC50 [2] of 101 to 200 nM.
For `Cc1ccc(Nc2ccc3[nH]c(CSc4ccnc(C(F)(F)F)c4)nc3c2)cc1F` [Compound 51], the IC50 [2] was ≤ 100 nM.
For `Fc1ccc(Nc2cccc(-n3cc(CNc4ccnc(C(F)(F)F)c4)nn3)c2)cc1` [Compound 05], the IC50 [1] was ≤ 50 nM, the IC50 [2] was 201 to 500 nM and the solubility at 5 min [3] was > 25 µM.
For `Cc1cccc(Nc2ccc3[nH]c(CSc4ccnc(C(F)(F)F)c4)nc3c2)c1` [Compound 30], the IC50 [2] was 101 to 200 nM and the solubility at 5 min [3] was > 10 µM.
In the case of `FC(F)(F)c1cc(NCc2nc3cc(Nc4ccccc4)ccc3[nH]2)ccn1` [Compound 60], the IC50 [2] is reported as 201 to 500 nM and the solubility at 5 min [3] is reported as ≥ 100 µM.
With `Cc1ccc(Nc2ccc3[nH]c(CSc4ccnc(C(F)(F)F)c4)nc3c2)cc1` [Compound 31] the IC50 [2] was 101 to 200 nM and the solubility at 5 min [3] was > 10 µM.
For `FC(F)(F)c1cc(SCc2nc3ccc(Nc4ccccc4)cc3s2)ccn1` [Compound 16], the IC50 [1] was 51 to 250 nM and the IC50 [2] was 501 to 1000 nM.
In the case of `Fc1ccc(F)c(Nc2cccc(-n3cc(CNc4cc(Cl)nc(C(F)(F)F)c4)nn3)c2)c1` [Compound 07], the IC50 [2] is reported as 101 to 200 nM and the solubility at 5 min [3] is reported as > 25 µM.
With `COc1cccc(Nc2ccc3[nH]c(CSc4ccnc(C(F)(F)F)c4)nc3c2)c1` [Compound 33] the IC50 [2] was 101 to 200 nM and the solubility at 5 min [3] was > 10 µM.
With `COc1cc(F)cc(Nc2ccc3[nH]c(CSc4ccnc(C(F)(F)F)c4)nc3c2)c1` [Compound 54] the IC50 [2] was 201 to 500 nM and the solubility at 5 min [3] was > 25 µM.
With `Fc1cccc(Nc2ccc3[nH]c(COc4ccnc(C(F)(F)F)c4)nc3c2)c1` [Compound 64] the IC50 [2] was 201 to 500 nM and the solubility at 5 min [3] was > 25 µM.
In the case of `Nc1cccc(-c2ncc(CNc3cc(Cl)nc(C(F)(F)F)c3)cn2)c1` [Compound 10], the IC50 [2] is reported as 501 to 1000 nM and the solubility at 5 min [3] is reported as ≥ 100 µM.
In the case of `FC(F)(F)c1cc(SCc2nc3cc(Nc4cccc(Cl)c4)ccc3[nH]2)ccn1` [Compound 28], the solubility at 5 min [3] is reported as > 10 µM.
In the case of `FC(F)(F)c1cc(SCc2nc3ccc(Nc4ccccc4)cc3o2)ccn1` [Compound 15], the IC50 [1] is reported as 51 to 250 nM and the IC50 [2] is reported as 201 to 500 nM.
For `Nc1cc(SCc2nc3cc(Nc4ccccc4)ccc3[nH]2)nc(C(F)(F)F)n1` [Compound 14], the IC50 [1] was ≤ 50 nM, the IC50 [2] was 101 to 200 nM and the solubility at 5 min [3] was > 25 µM.
In the case of `Fc1ccccc1Nc1ccc(-n2cc(CNc3ccnc(C(F)(F)F)c3)nn2)cc1` [Compound 01], the IC50 [1] is reported as ≤ 50 nM, the IC50 [2] is reported as 201 to 500 nM and the solubility at 5 min [3] is reported as > 50 µM.
With `Fc1cccc(F)c1Nc1ccc2[nH]c(CSc3ccnc(C(F)(F)F)c3)nc2c1` [Compound 42] the IC50 [1] was ≤ 50 nM, the IC50 [2] was 101 to 200 nM and the solubility at 5 min [3] was > 25 µM.
For `Fc1cc(Nc2cccnc2)cc2nc(CSc3ccnc(C(F)(F)F)c3)[nH]c12` [Compound 58], the IC50 [2] was 201 to 500 nM and the solubility at 5 min [3] was > 50 µM.
For `Fc1cccc(Nc2ccc3[nH]c(CSc4ccnc(C(F)(F)F)c4)nc3c2)c1` [Compound 23], the IC50 [2] was ≤ 100 nM and the solubility at 5 min [3] was > 10 µM.
In the case of `FC(F)(F)c1cc(SCc2nc3cc(Nc4ccccn4)ccc3[nH]2)ccn1` [Compound 18], the IC50 [2] is reported as 201 to 500 nM and the solubility at 5 min [3] is reported as > 50 µM.
Work on `FC(F)(F)Oc1ccccc1Nc1ccc2[nH]c(CSc3ccnc(C(F)(F)F)c3)nc2c1` [Compound 38] yielded an IC50 [2] of 201 to 500 nM.
In the case of `Cc1c(F)cc(Nc2ccc3[nH]c(CSc4ccnc(C(F)(F)F)c4)nc3c2)cc1F` [Compound 55], the IC50 [2] is reported as 101 to 200 nM and the solubility at 5 min [3] is reported as > 10 µM.
In the case of `Fc1ccccc1Nc1ccc2[nH]c(CSc3ccnc(C(F)(F)F)c3)nc2c1` [Compound 22], the solubility at 5 min [3] is reported as > 25 µM.
With `Cc1cc(Nc2ccccc2)cc2nc(CSc3ccnc(C(F)(F)F)c3)[nH]c12` [Compound 59] the IC50 [1] was ≤ 50 nM, the IC50 [2] was 101 to 200 nM and the solubility at 5 min [3] was > 10 µM.
In the case of `Fc1ccc(Nc2ccc3[nH]c(CSc4ccnc(C(F)(F)F)c4)nc3c2)cc1F` [Compound 47], the IC50 [2] is reported as ≤ 100 nM and the solubility at 5 min [3] is reported as > 10 µM.
With `Fc1c(Nc2ccc3[nH]c(CSc4ccnc(C(F)(F)F)c4)nc3c2)cccc1C(F)(F)F` [Compound 48] the IC50 [2] was 101 to 200 nM.
With `COc1ccc(Nc2ccc3[nH]c(CSc4ccnc(C(F)(F)F)c4)nc3c2)cc1` [Compound 34] the IC50 [1] was 51 to 250 nM and the solubility at 5 min [3] was > 25 µM.
For `Fc1cncc(Nc2ccc3[nH]c(CSc4ccnc(C(F)(F)F)c4)nc3c2)c1` [Compound 41], the IC50 [2] was 201 to 500 nM and the solubility at 5 min [3] was > 50 µM.
For `Nc1cc(SCc2nc3cc(Nc4cccc(F)c4)ccc3[nH]2)cc(C(F)(F)F)n1` [Compound 24], the IC50 [2] was ≤ 100 nM and the solubility at 5 min [3] was > 10 µM.
For `Fc1cc(Nc2ccccc2)cc2nc(CSc3ccnc(C(F)(F)F)c3)[nH]c12` [Compound 56], the IC50 [1] was ≤ 50 nM, the IC50 [2] was ≤ 100 nM and the solubility at 5 min [3] was > 25 µM.
For `Nc1cc(-c2ncc(CNc3cc(Cl)nc(C(F)(F)F)c3)cn2)ccc1Cl` [Compound 11], the IC50 [2] was 501 to 1000 nM and the solubility at 5 min [3] was > 25 µM.
With `Fc1cccc(Nc2cc(F)c3[nH]c(CSc4ccnc(C(F)(F)F)c4)nc3c2)c1` [Compound 57] the IC50 [2] was ≤ 100 nM and the solubility at 5 min [3] was > 10 µM.
With `FC(F)(F)c1cc(SCc2nc3cc(Cc4ccccc4)ccc3[nH]2)ccn1` [Compound 12] the IC50 [1] was ≤ 50 nM, the IC50 [2] was 201 to 500 nM and the solubility at 5 min [3] was > 25 µM.
With `Cc1ccc(Nc2ccc3[nH]c(CSc4ccnc(C(F)(F)F)c4)nc3c2)nc1` [Compound 40] the solubility at 5 min [3] was > 25 µM.
In the case of `Fc1ccc(Nc2ccc3[nH]c(CSc4ccnc(C(F)(F)F)c4)nc3c2)cc1` [Compound 26], the solubility at 5 min [3] is reported as > 25 µM.
In the case of `FC(F)(F)c1cc(SCc2nc3cc(Nc4ccccc4Cl)ccc3[nH]2)ccn1` [Compound 27], the IC50 [2] is reported as ≤ 100 nM.
In the case of `FC(F)(F)c1cc(SCc2nc3cc(Nc4cccnc4)ccc3[nH]2)ccn1` [Compound 19], the IC50 [2] is reported as 501 to 1000 nM and the solubility at 5 min [3] is reported as ≥ 100 µM.
